Source: patent US7589185B2, “Nucleotide sequences and protein(s) encoded by such nucleotides for modulation of apoptosis” (Universita' degli Studi di Catanzaro “Magna Graecia”, priority 2001, dated 2009)

How the values were obtained:
[1] = system: SH-SY5Y neuroblastoma cells; test: Apoptosis of SH-SY5Y neuroblastoma cells induced by DEM, propidium iodide flow cytometry; type: cell-based, human; conditions: 2 or 6 mM DEM, oligonucleotides 7 microM, 12 or 16 h (FIGS. 3-6)
Air protein = test: Intracellular expression of Air protein in primary B-CLL cells, immunofluorescence flow cytometry; type: cell-based, human
Source text: Presence of the Protein in primary ex vivo cells—We investigated whether our protein was present in primary ex vivo cells. (Procedures and conditions for isolation and culturing of primary cells are described in ref. 8-10). To this purpose, we first analysed three samples of B chronic lymphocytic leukemia (B-CLL) cells, since these cells can be considered a primary counterpart of the cell line that we initially studied. To detect the protein, we perform intracellular immuno-fluorescence experiments. 1−2×10^6 cells were fixed and permeabilised with 250 microl of Cytofix/Cytoperm (Pharmingen) solution, then incubated with the specific anti-Air rabbit polyclonal or a control rabbit antibody, followed by washing with Perm/Wash (Pharmingen) and a second incubation with fluorescein isothiocyanate (FITC)-conjugated goat anti-rabbit antibody. Then the cells were analysed with a FACScan (Becton Dickinson) flow cytometer. These experiments allowed to detect the presence of the protein in the three analysed B-CLL samples (FIGS. 7, 8 and 9).
FIG. 7—Intracellular expression of Air protein in cells from a patient affected by B-CLL. 2×10^6/ml cells obtained from patient's peripheral blood by centrifugation through Ficoll-Hypaque were incubated 24 h at 37° C. in a 5% CO2 atmosphere in the absence or presence of 2 mM DEM, fixed and permeabilised with 250 microl of Cytofix/Cytoperm (Pharmingen) solution. The cells were then incubated with the specific anti-Air rabbit polyclonal or a control rabbit antibody, followed by washing with Perm/Wash (Pharmingen) and a second incubation with fluorescein isothiocyanate (FITC)-conjugated goat anti-rabbit antibody. Then the cells were analysed with a FACScan (Becton Dickinson) flow cytometer. A panel: unstimulated cells. B panel: DEM-stimulated cells. Protein expression is detected in the 33.8% of the cells in basal conditions and in the 47.6% of the cells incubated with DEM.
FIG. 8—Intracellular expression of Air protein in cells from a patient affected by B-CLL. 2×10^6/ml cells obtained from patient's peripheral blood by centrifugation through Ficoll-Hypaque were incubated 24 h at 37° C. in a 5% CO2 atmosphere in the absence or presence of 2 mM DEM or 20 microM 2-Methoxymethylestradiol (2-ME), fixed and permeabilised with 250 microl of Cytofix/Cytoperm (Pharmingen) solution. The cells were then incubated with the specific anti-Air rabbit polyclonal or a control rabbit antibody, followed by washing with Perm/Wash (Pharmingen) and a second incubation with fluoresceinisothiocyanate (FITC)-conjugated goat anti-rabbit antibody. Then the cells were analysed with a FACScan (Becton Dickinson) flow cytometer. A panel: unstimulated cells. B panel: DEM-stimulated cells. C panel: cells stimulated with the drug 2-Methoxymethylestradiol (2-ME). Protein expression is detected in the 17.3% of the cells in basal conditions, in the 55.5% of DEM-stimulated cells and in the 53.1% of 2-ME-stimulated cells.
FIG. 9—Intracellular expression of Air protein in a patient affected by B-CLL. […] Then the cells were analysed with a FACScan (Becton Dickinson) flow cytometer. […] Protein expression is detected in the 27.2% of the cells in basal conditions, in the 28.3% of DEM-stimulated cells and in the 23.1% of 2-ME-stimulated cells.

Question: Which modulation of apoptosis [1] does the source give for “SEQ ID NO 8: antisense phosphorothioate oligonucleotide directed at blocking Air synthesis (CTTTCTATCTTCATTTTATTTTTCC; all phosphorothioate, sugars by position and methylation of C not given here)” here?
Answer: blocking it

Question: Which “cells in which Air protein expression is detected” value (from here on “cells”) (Air protein; B-CLL patient of FIG. 7, 2 mM DEM, 24 h (basal 33.8%)) does the source give for `CCOC(=O)/C=C\C(=O)OCC` [DEM, diethylmaleate] here?
Answer: 47.6%

Question: And the “cells” value (Air protein; B-CLL patient of FIG. 8, 2 mM DEM, 24 h (basal 17.3%))?
Answer: 55.5%

Question: And the “cells” value (Air protein; B-CLL patient of FIG. 9, 2 mM DEM, 24 h (basal 27.2%))?
Answer: 28.3%

Question: Which modulation of apoptosis [1] does the source give for “SEQ ID NO 7: antisense phosphorothioate oligonucleotide directed at blocking Air synthesis (ATCTTAGTCTTATACATTTTTTTAAA; all phosphorothioate, sugars by position and methylation of C not given here)” here?
Answer: blocking it

Question: “SEQ ID NO 6: antisense phosphorothioate oligonucleotide directed at blocking Air synthesis (CTTAGTCTTATACATTTTTTTAAAATC; all phosphorothioate, sugars by position and methylation of C not given here)” was tested. Which modulation of apoptosis [1] did it give?
Answer: blocking it

Question: `COCc1cc2c(cc1O)CC[C@@H]1[C@@H]2CC[C@]2(C)[C@@H](O)CC[C@@H]12` [2-ME, 2-Methoxymethylestradiol] was tested. Which “cells” value (Air protein; B-CLL patient of FIG. 8, 20 microM 2-ME, 24 h (basal 17.3%)) did it give?
Answer: 53.1%

Question: What about the “cells” value (Air protein; B-CLL patient of FIG. 9, 20 microM 2-ME, 24 h (basal 27.2%)) of the same molecule?
Answer: 23.1%
